Reference: US12559529B2, “NPY2 receptor agonists” (Boehringer Ingelheim International GmbH, priority 2019, dated 2026)

biological target: T1, Human Neuropeptide Y2 Receptor (Homo sapiens, UniProt P49146); assay: Radioligand binding competition assay (RLB); conditions: Table 3; human 125I-PYY (1-36) 0.02 nM, Y2 receptor membranes; read-out: Ki
T1 construct: purchased CHEMICON HTS066M
T1 sequence (P49146 1-381): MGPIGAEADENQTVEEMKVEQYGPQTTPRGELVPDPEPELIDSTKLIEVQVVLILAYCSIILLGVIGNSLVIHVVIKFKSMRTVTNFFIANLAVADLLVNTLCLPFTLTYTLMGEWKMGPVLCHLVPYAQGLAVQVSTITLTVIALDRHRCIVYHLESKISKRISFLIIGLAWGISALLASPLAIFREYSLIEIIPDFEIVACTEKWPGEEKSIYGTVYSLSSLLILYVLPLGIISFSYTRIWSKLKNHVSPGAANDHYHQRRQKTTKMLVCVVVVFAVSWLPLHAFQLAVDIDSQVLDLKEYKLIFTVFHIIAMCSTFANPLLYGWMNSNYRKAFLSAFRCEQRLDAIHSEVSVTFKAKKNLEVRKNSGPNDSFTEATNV
Experimental: The filtration RLB assay was carried out in 96-well plates in a final volume of 100 μl per well. Freeze-dried test peptides were dissolved in 100% dimethyl sulfoxide (DMSO) to stock solutions of 1 mM and serial dilutions were performed in assay buffer (50 mM HEPES, 5 mM MgCl2, 1 mM CaCl2), pH 7.4) containing 0.2% ovalbumin. […] Next, 80 μL membranes (HTS066M, ChemiSCREEN™ Human Neuropeptide Y2 Receptor Membrane Preparation, CHEMICON) were added to each well to give a final protein concentration of 0.5 μg/well. The plates were sealed and incubated at room temperature for 2 hours in a plate shaker set at 400 rpm. The incubation was stopped by vacuum filtration onto 0.5% poly-ethylene amine (PEI) presoaked GF/C filters using a 96-well FilterMate™ harvester (Perkin Elmer) followed by four washes with 300 μl/well ice-cold wash buffer (50 mM HEPES, 500 mM NaCl, pH7.4). Filter plates were then dried for 60 min at room temperature and the bottom of the plates was sealed with backing tape UniFilter-96. Finally, 50 μl/well scintillation counter cocktail (Microscint20, Packard) was added and the radioactivity was counted in the Packard TopCount NXT scintillation counter. IC50 values (the half maximal inhibitory concentration of the agonist) were calculated by nonlinear regression analysis of sigmoidal dose-response curves.

Row | Compound | Ki [nM]
1 | CC(C)CC(=O)N[C@@H](C)C(=O)N1CCC[C@H]1C(=O)N[C@@H](CCC(=O)O)C(=O)N[C@@H](CCCCNC(=O)COCCOCCNC(=O)COCCOCCNC(=O)CC[C@H](NC(=O)CCCCCCCCCCCCCCCCC(=O)O)C(=O)O)C(=O)N1CCC[C@H]1C(=O)N[C@@H](CCC(=O)O)C(=O)N[C@@H](CCC(=O)O)C(=O)N[C@@H](CC(=O)O)C(=O)N[C@@H](C)C(=O)N[C@@H](C)C(=O)N1CCC[C@H]1C(=O)N[C@@H](CCC(=O)O)C(=O)N[C@@H](CCC(=O)O)C(=O)N[C@@H](CC(C)C)C(=O)N[C@@H](CCC(N)=O)C(=O)N[C@@H](CCCNC(=N)N)C(=O)N[C@@H](Cc1ccc(O)cc1)C(=O)N[C@@H](Cc1ccc(O)cc1)C(=O)N[C@H](C(=O)N[C@@H](CCC(=O)O)C(=O)N[C@@H](CC(C)C)C(=O)N[C@@H](CCCNC(=N)N)C(=O)N[C@@H](Cc1c[nH]cn1)C(=O)N[C@@H](Cc1ccc(O)cc1)C(=O)N[C@@H](Cc1ccc(O)cc1)C(=O)N[C@@H](CC(N)=O)C(=O)N[C@@H](Cc1c[nH]c2ccccc12)C(=O)N[C@@H](CC(C)C)C(=O)N[C@H](C(=O)N[C@@H](CCCNC(=N)N)C(=O)N[C@@H](CCC(N)=O)C(=O)N[C@@H](CCCNC(=N)N)C(=O)N[C@@H](Cc1ccc(O)cc1)C(N)=O)[C@@H](C)O)C(C)C [Compound 20, N{alpha-4}-(3-methylbutanoyl)-N{epsilon-7}-[2-(2-{2-[2-(2-{2-[(4S)-4-carboxy-4-(17-carboxyheptadecanamido)butanamido]ethoxy}ethoxy)acetamido]ethoxy}ethoxy)acetamido]-[4A,7K,9E,13A,18Q,22V,23E,28Y,30W,31L]hPYY (4-36)] | 2.57
2 | CC(C)CC(=O)N[C@@H](C)C(=O)N1CCC[C@H]1C(=O)N[C@@H](CCC(=O)O)C(=O)N[C@@H](CCCCNC(=O)COCCOCCNC(=O)COCCOCCNC(=O)CC[C@H](NC(=O)CCCCCCCCCCCCCCCCC(=O)O)C(=O)O)C(=O)N1CCC[C@H]1C(=O)N[C@@H](CCC(=O)O)C(=O)N[C@@H](CCC(=O)O)C(=O)N[C@@H](CC(=O)O)C(=O)N[C@@H](C)C(=O)N[C@@H](CO)C(=O)N1CCC[C@H]1C(=O)N[C@@H](CCC(=O)O)C(=O)N[C@@H](CCC(=O)O)C(=O)N[C@@H](CC(C)C)C(=O)N[C@@H](CCC(N)=O)C(=O)N[C@@H](CCCNC(=N)N)C(=O)N[C@@H](Cc1ccc(O)cc1)C(=O)N[C@@H](Cc1ccc(O)cc1)C(=O)N[C@H](C(=O)N[C@@H](CO)C(=O)N[C@@H](CC(C)C)C(=O)N[C@@H](CCCNC(=N)N)C(=O)N[C@@H](CCCCN)C(=O)N[C@@H](Cc1ccc(O)cc1)C(=O)N[C@@H](Cc1ccc(O)cc1)C(=O)N[C@@H](CC(N)=O)C(=O)N[C@@H](Cc1c[nH]c2ccccc12)C(=O)N[C@@H](CC(C)C)C(=O)N[C@H](C(=O)N[C@@H](CCCNC(=N)N)C(=O)N[C@@H](CCC(N)=O)C(=O)N[C@@H](CCCNC(=N)N)C(=O)N[C@@H](Cc1ccc(O)cc1)C(N)=O)[C@@H](C)O)C(C)C [Compound 24, N{alpha-4}-(3-methylbutanoyl)-N{epsilon-7}-[2-(2-{2-[2-(2-{2-[(4S)-4-carboxy-4-(17-carboxyheptadecanamido)butanamido]ethoxy}ethoxy)acetamido]ethoxy}ethoxy)acetamido]-[4A,7K,9E,18Q,22V,26K,28Y,30W,31L]hPYY (4-36)] | 2.22
3 | CC(C)CC(=O)N[C@@H](C)C(=O)N1CCC[C@H]1C(=O)N[C@@H](CCC(=O)O)C(=O)N[C@@H](CCCCNC(=O)COCCOCCNC(=O)COCCOCCNC(=O)CC[C@H](NC(=O)CCCCCCCCCCCCCCCCC(=O)O)C(=O)O)C(=O)N1CCC[C@H]1C(=O)N[C@@H](CCC(=O)O)C(=O)N[C@@H](CCC(=O)O)C(=O)N[C@@H](CCC(=O)O)C(=O)N[C@@H](C)C(=O)N[C@@H](CO)C(=O)N[C@@H](C)C(=O)N[C@@H](CCC(=O)O)C(=O)N[C@@H](CCC(=O)O)C(=O)N[C@@H](CC(C)C)C(=O)N[C@@H](CCC(N)=O)C(=O)N[C@@H](CCCNC(=N)N)C(=O)N[C@@H](Cc1ccc(O)cc1)C(=O)N[C@@H](Cc1ccc(O)cc1)C(=O)N[C@H](C(=O)N[C@@H](CO)C(=O)N[C@@H](CC(C)C)C(=O)N[C@@H](CCCNC(=N)N)C(=O)N[C@@H](Cc1c[nH]cn1)C(=O)N[C@@H](Cc1ccc(O)cc1)C(=O)N[C@@H](Cc1ccc(O)cc1)C(=O)N[C@@H](CC(N)=O)C(=O)N[C@@H](Cc1c[nH]c2ccccc12)C(=O)N[C@@H](CC(C)C)C(=O)N[C@H](C(=O)N[C@@H](CCCNC(=N)N)C(=O)N[C@@H](CCC(N)=O)C(=O)N[C@@H](CCCNC(=N)N)C(=O)N[C@@H](Cc1ccc(O)cc1)C(N)=O)[C@@H](C)O)C(C)C [Compound 25, N{alpha-4}-(3-methylbutanoyl)-N{epsilon-7}-[2-(2-{2-[2-(2-{2-[(4S)-4-carboxy-4-(17-carboxyheptadecanamido)butanamido]ethoxy}ethoxy)acetamido]ethoxy}ethoxy)acetamido]-[4A,7K,9E,11E,14A,18Q,22V,28Y,30W,31L]hPYY (4-36)] | 4.36

Next, values leading:

Row | Ki [nM] | Compound
4 | 0.77 | CC(C)CC(=O)N[C@@H](C)C(=O)N1CCC[C@H]1C(=O)N[C@@H](CCC(=O)O)C(=O)N[C@@H](CCCCNC(=O)COCCOCCNC(=O)COCCOCCNC(=O)CC[C@H](NC(=O)CCCCCCCCCCCCCCCCC(=O)O)C(=O)O)C(=O)N1CCC[C@H]1C(=O)N1CCC[C@H]1C(=O)N[C@@H](CCC(=O)O)C(=O)N[C@@H](CC(=O)O)C(=O)N[C@@H](C)C(=O)N[C@H](C(=O)N1CCC[C@H]1C(=O)N[C@@H](CCC(=O)O)C(=O)N[C@@H](CCC(=O)O)C(=O)N[C@@H](CC(C)C)C(=O)N[C@@H](CCC(N)=O)C(=O)N[C@@H](CCCNC(=N)N)C(=O)N[C@@H](Cc1ccc(O)cc1)C(=O)N[C@@H](Cc1ccc(O)cc1)C(=O)N[C@H](C(=O)N[C@@H](CO)C(=O)N[C@@H](CC(C)C)C(=O)N[C@@H](CCCNC(=N)N)C(=O)N[C@@H](Cc1c[nH]cn1)C(=O)N[C@@H](Cc1ccc(O)cc1)C(=O)N[C@@H](Cc1ccc(O)cc1)C(=O)N[C@@H](CC(N)=O)C(=O)N[C@@H](Cc1c[nH]c2ccccc12)C(=O)N[C@@H](CC(C)C)C(=O)N[C@H](C(=O)N[C@@H](CCCNC(=N)N)C(=O)N[C@@H](CCC(N)=O)C(=O)N[C@@H](CCCNC(=N)N)C(=O)N[C@@H](Cc1ccc(O)cc1)C(N)=O)[C@@H](C)O)C(C)C)[C@@H](C)O [Compound 26, N{alpha-4}-(3-methylbutanoyl)-N{epsilon-7}-[2-(2-{2-[2-(2-{2-[(4S)-4-carboxy-4-(17-carboxyheptadecanamido)butanamido]ethoxy}ethoxy)acetamido]ethoxy}ethoxy)acetamido]-[4A,7K,9P,13T,18Q,22V,28Y,30W,31L]hPYY (4-36)]
5 | 0.96 | CC(C)CC(=O)N[C@@H](C)C(=O)N1CCC[C@H]1C(=O)N[C@@H](CCC(=O)O)C(=O)N[C@@H](CCCCNC(=O)COCCOCCNC(=O)COCCOCCNC(=O)CC[C@H](NC(=O)CCCCCCCCCCCCCCCCC(=O)O)C(=O)O)C(=O)N1CCC[C@H]1C(=O)N1CCC[C@H]1C(=O)N[C@@H](CCC(=O)O)C(=O)N[C@@H](CC(=O)O)C(=O)N[C@@H](C)C(=O)N[C@@H](CCC(=O)O)C(=O)N1CCC[C@H]1C(=O)N[C@@H](CCC(=O)O)C(=O)N[C@@H](CCC(=O)O)C(=O)N[C@@H](CC(C)C)C(=O)N[C@@H](CCC(N)=O)C(=O)N[C@@H](CCCNC(=N)N)C(=O)N[C@@H](Cc1ccc(O)cc1)C(=O)N[C@@H](Cc1ccc(O)cc1)C(=O)N[C@H](C(=O)N[C@@H](CO)C(=O)N[C@@H](CC(C)C)C(=O)N[C@@H](CCCNC(=N)N)C(=O)N[C@@H](Cc1c[nH]cn1)C(=O)N[C@@H](Cc1ccc(O)cc1)C(=O)N[C@@H](Cc1ccc(O)cc1)C(=O)N[C@@H](CC(N)=O)C(=O)N[C@@H](Cc1c[nH]c2ccccc12)C(=O)N[C@@H](CC(C)C)C(=O)N[C@H](C(=O)N[C@@H](CCCNC(=N)N)C(=O)N[C@@H](CCC(N)=O)C(=O)N[C@@H](CCCNC(=N)N)C(=O)N[C@@H](Cc1ccc(O)cc1)C(N)=O)[C@@H](C)O)C(C)C [Compound 27, N{alpha-4}-(3-methylbutanoyl)-N{epsilon-7}-[2-(2-{2-[2-(2-{2-[(4S)-4-carboxy-4-(17-carboxyheptadecanamido)butanamido]ethoxy}ethoxy)acetamido]ethoxy}ethoxy)acetamido]-[4A,7K,9P,13E,18Q,22V,28Y,30W,31L]hPYY (4-36)]
